Patent publication US5202437A, “3-pyrrolidinylthio-1-azabicyclo(3.2.0)-hept-2-ene-2-carboxylic acid compounds” (Fujisawa Pharmaceutical Company, Ltd., priority 1988, dated 1993)
Converted amounts (≈) assume the structure as drawn.

Tested on: P. aeruginosa 26
Assay: in vitro Antimicrobial Activity (two-fold agar-plate dilution method)
Assay type: cell-based
Conditions: Pseudomonas aeruginosa, heart infusion agar, 10^6 viable cells per ml, 37° C. for 20 hours, read-out: minimal inhibitory concentration (MIC)
Protocol: in vitro Antimicrobial Activity was determined by the two-fold agar-plate dilution method as described blow.
One loopful of an overnight culture of a test strain in Trypticase-soy broth (10^6 viable cells per ml) was streaked on heart infusion agar (HI-agar) containing graded concentrations of the test compound, and the minimal inhibitory concentration (MIC) was expressed in terms of μg/ml after incubation at 37° C. for 20 hours.
The compound of Example 2.

MIC: 0.39 µg/mL (≈ 0.95 µM)
Structure (SMILES): C[C@@H](O)[C@H]1C(=O)N2C(C(=O)O)=C(S[C@@H]3CN[C@H](CN4CCNCC4)C3)[C@H](C)[C@H]12 [Example 2, (4R,5S,6S)-6-[(1R)-1-hydroxyethyl]-4-methyl-7-oxo-3-[(2S,4S)-2-(piperazin-1-yl)methylpyrrolidin-4-yl]thio-1-azabicyclo[3.2.0]hept-2-ene-2-carboxylic acid]
